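Where inhibition never reached the appropriate level, the endpoint shown equals the highest concentration tested. Otherwise, values were interpolated linearly from a five-concentration, 48-hour dose response in 96-well plates. The concentration for 50% growth inhibition is given as GI50.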 Activity calls are given as the source filed them. No stated cut-off is given here; in the data, active = GI50 up to about 1.1 µM and inactive = higher.
Columns and labels:
Assay in all cases: growth of human tumour cells (NCI), 48 h
[1] = test system: M14
[2] = test system: MDA-N
[3] = test system: TK-10
[4] = test system: DU-145
[5] = test system: SR
[6] = test system: SNB-75
[7] = test system: LOX IMVI
[8] = test system: T47D
[9] = test system: SF-539
[10] = test system: UACC-257
[11] = test system: HCC 2998
[12] = test system: BT-549
[13] = test system: NCI-H226
[14] = test system: SW-620
[15] = test system: SF-295
[16] = test system: RXF 393
[17] = test system: COLO 205
[18] = test system: OVCAR-4
[19] = test system: MOLT-4
[20] = test system: Hs-578T

| SMILES | GI50 [1] | GI50 [2] | GI50 [3] | GI50 [4] | GI50 [5] | GI50 [6] | GI50 [7] | GI50 [8] | GI50 [9] | GI50 [10] | GI50 [11] | GI50 [12] | GI50 [13] | GI50 [14] | GI50 [15] | GI50 [16] | GI50 [17] | GI50 [18] | GI50 [19] | GI50 [20] |
| --- | --- | --- | --- | --- | --- | --- | --- | --- | --- | --- | --- | --- | --- | --- | --- | --- | --- | --- | --- | --- |
| COc1ccc(N[C@H](C[S+]([O-])c2ccc(C)cc2)C(F)(F)F)cc1 (some centres not stated) | > 100 µM (inactive) | > 100 µM (inactive) | > 100 µM (inactive) | > 100 µM (inactive) | > 100 µM (inactive) | > 100 µM (inactive) | > 100 µM (inactive) | > 100 µM (inactive) | > 100 µM (inactive) | > 100 µM (inactive) | > 100 µM (inactive) | > 100 µM (inactive) | > 100 µM (inactive) | > 100 µM (inactive) | > 100 µM (inactive) | > 100 µM (inactive) | > 100 µM (inactive) | > 100 µM (inactive) | > 100 µM (inactive) |  |
| N#Cc1cc2c(n(C3OC(CO)C(O)C(O)C3O)c1=S)CCCCC2 (configuration not stated) | > 100 µM (inactive) | > 100 µM (inactive) | > 100 µM (inactive) | > 100 µM (inactive) | > 100 µM (inactive) | > 100 µM (inactive) | > 100 µM (inactive) |  | > 100 µM (inactive) | > 100 µM (inactive) | > 100 µM (inactive) | > 100 µM (inactive) | > 100 µM (inactive) |  | > 100 µM (inactive) | > 100 µM (inactive) | > 100 µM (inactive) | > 100 µM (inactive) | > 100 µM (inactive) | > 100 µM (inactive) |
| NC(=O)N/N=C(\Cc1cc(=O)oc2cc(O)ccc12)C(=O)Nc1ccccc1C(N)=O | > 100 µM (inactive) | > 100 µM (inactive) | > 100 µM (inactive) | > 100 µM (inactive) |  | > 100 µM (inactive) | > 100 µM (inactive) |  | > 100 µM (inactive) | > 100 µM (inactive) | 61 µM (inactive) | > 100 µM (inactive) | > 100 µM (inactive) | > 100 µM (inactive) | > 100 µM (inactive) | > 100 µM (inactive) | > 100 µM (inactive) | > 100 µM (inactive) | > 100 µM (inactive) | > 100 µM (inactive) |
| O=c1oc2ccccc2n1CCN1CCCCC1 | > 100 µM (inactive) | > 100 µM (inactive) | > 100 µM (inactive) | > 100 µM (inactive) | > 100 µM (inactive) | > 100 µM (inactive) | > 100 µM (inactive) |  | > 100 µM (inactive) | > 100 µM (inactive) |  | > 100 µM (inactive) | > 100 µM (inactive) | > 100 µM (inactive) | > 100 µM (inactive) | > 100 µM (inactive) | > 100 µM (inactive) |  | > 100 µM (inactive) | > 100 µM (inactive) |
| COc1ccc(C2=C(Cl)C(=O)N(c3ccc(OC)cc3OC)C(=O)C2(Cl)Cl)cc1 | 14.6 µM (inactive) |  | 18.9 µM (inactive) | 17.3 µM (inactive) | 4.09 µM (inactive) | 22.9 µM (inactive) | 14.7 µM (inactive) | 11.8 µM (inactive) | 10.4 µM (inactive) | 17.8 µM (inactive) |  | 18.8 µM (inactive) | 11.9 µM (inactive) | 14.8 µM (inactive) | 24.3 µM (inactive) | 17.9 µM (inactive) | 17.9 µM (inactive) | 14.5 µM (inactive) | 5.07 µM (inactive) | < 0.01 µM (active) |
| C1=C2SSC3=CC=C(SSc4ccc(s4)SSC4=CC=C(SSC(=C1)S2)S4)S3 | > 100 µM (inactive) | > 100 µM (inactive) | > 100 µM (inactive) | > 100 µM (inactive) | > 100 µM (inactive) | > 100 µM (inactive) | > 100 µM (inactive) | > 100 µM (inactive) |  | > 100 µM (inactive) | > 100 µM (inactive) | > 100 µM (inactive) | > 100 µM (inactive) | > 100 µM (inactive) | > 100 µM (inactive) | > 100 µM (inactive) | > 100 µM (inactive) | > 100 µM (inactive) | > 100 µM (inactive) |  |
| C[C@H](N)C(=O)Nc1ccc(-c2nc3ccccc3s2)cc1Cl | 5.78 µM (inactive) | 13.2 µM (inactive) | 0.161 µM (active) | 16.6 µM (inactive) | 3.8 µM (inactive) | 16 µM (inactive) | 7.82 µM (inactive) |  |  | 18.6 µM (inactive) | 0.56 µM (active) | 16.3 µM (inactive) | 0.0745 µM (active) | 15.2 µM (inactive) | 16.6 µM (inactive) | 15.1 µM (inactive) | 12.5 µM (inactive) |  | 17.7 µM (inactive) | 20.1 µM (inactive) |
| Cc1ccc2nc(-n3c(/C=C/c4ccccc4O)nc4ccccc4c3=O)sc2c1 | > 100 µM (inactive) | > 100 µM (inactive) | > 100 µM (inactive) | > 100 µM (inactive) |  | > 100 µM (inactive) | > 100 µM (inactive) |  |  | > 100 µM (inactive) | > 100 µM (inactive) | > 100 µM (inactive) | > 100 µM (inactive) | > 100 µM (inactive) | > 100 µM (inactive) | > 100 µM (inactive) | > 100 µM (inactive) | > 100 µM (inactive) | > 100 µM (inactive) | > 100 µM (inactive) |
| COc1ccc(C[C@@H](CO)NC2=C(C#N)CCC2)cc1 | 41.4 µM (inactive) | 28.6 µM (inactive) | 63.8 µM (inactive) | 50.6 µM (inactive) |  | 22.2 µM (inactive) | 23.7 µM (inactive) |  | 26.3 µM (inactive) | 34.6 µM (inactive) | 19.6 µM (inactive) | 30.4 µM (inactive) | 48.3 µM (inactive) | 49.2 µM (inactive) | 29.7 µM (inactive) | 48.6 µM (inactive) | 43.7 µM (inactive) | 32.1 µM (inactive) | 38.7 µM (inactive) | 20 µM (inactive) |
| Nc1ncnc2c1ncn2C1CCC(COS(N)(=O)=O)C1 (configuration not stated) | > 100 µM (inactive) | > 100 µM (inactive) | > 100 µM (inactive) | > 100 µM (inactive) | 56.4 µM (inactive) | 89.5 µM (inactive) | 37 µM (inactive) | 93.5 µM (inactive) | 27 µM (inactive) | > 100 µM (inactive) | > 100 µM (inactive) |  | > 100 µM (inactive) | > 100 µM (inactive) | > 100 µM (inactive) | > 100 µM (inactive) | > 100 µM (inactive) | > 100 µM (inactive) | 46.9 µM (inactive) | 65.5 µM (inactive) |
| CC1(C)C(C#N)=[N+]([O-])C(C)(C)N1O | > 100 µM (inactive) | 65.8 µM (inactive) | > 100 µM (inactive) | > 100 µM (inactive) | > 100 µM (inactive) | > 100 µM (inactive) | 77.3 µM (inactive) | > 100 µM (inactive) | > 100 µM (inactive) | > 100 µM (inactive) | > 100 µM (inactive) |  | > 100 µM (inactive) | 72.3 µM (inactive) | > 100 µM (inactive) | > 100 µM (inactive) | > 100 µM (inactive) | > 100 µM (inactive) | 35.5 µM (inactive) | > 100 µM (inactive) |
| O=C1OCC(CN2CCC(n3c(=O)[nH]c4ccccc43)CC2)=C1c1ccccc1 | 18.3 µM (inactive) | 26.2 µM (inactive) | 28.1 µM (inactive) | 24.8 µM (inactive) | 30.2 µM (inactive) | 28.2 µM (inactive) | 21.4 µM (inactive) | 6.03 µM (inactive) | 18.9 µM (inactive) | 23.4 µM (inactive) | 23.8 µM (inactive) |  | 25.4 µM (inactive) | 34.9 µM (inactive) | 26.4 µM (inactive) | 34.8 µM (inactive) | 14.6 µM (inactive) | 18.7 µM (inactive) | 22 µM (inactive) | 30 µM (inactive) |
| COc1ccc2c(c1)CCN=C2c1ccccc1CCCCl | 29.3 µM (inactive) |  | 94 µM (inactive) | 36.5 µM (inactive) |  | 17.3 µM (inactive) |  | 10.8 µM (inactive) | 18.6 µM (inactive) | 23.7 µM (inactive) | 6.25 µM (inactive) | 38.5 µM (inactive) | 15.7 µM (inactive) | > 100 µM (inactive) | 20.5 µM (inactive) | 22.6 µM (inactive) | 11 µM (inactive) | 13.7 µM (inactive) | 13 µM (inactive) | 16.5 µM (inactive) |
| ClCCN1CCC2(CC1)SSC1(CCN(CCCl)CC1)S2 | 61.4 µM (inactive) | > 100 µM (inactive) | 35.9 µM (inactive) | 37.2 µM (inactive) | 7.74 µM (inactive) | 59.3 µM (inactive) | 31.8 µM (inactive) |  | 20.6 µM (inactive) | > 100 µM (inactive) |  | 35.8 µM (inactive) |  | 76.6 µM (inactive) | 29.4 µM (inactive) |  | 15.8 µM (inactive) | 35.2 µM (inactive) | 41.5 µM (inactive) | 45.1 µM (inactive) |
| COC1(OC)C(/C(N)=C\O)=NC(C)(C)N1O | > 100 µM (inactive) | > 100 µM (inactive) |  | > 100 µM (inactive) | > 100 µM (inactive) | 66.2 µM (inactive) | > 100 µM (inactive) |  | > 100 µM (inactive) | > 100 µM (inactive) | > 100 µM (inactive) | > 100 µM (inactive) | > 100 µM (inactive) | > 100 µM (inactive) | > 100 µM (inactive) | > 100 µM (inactive) | 57 µM (inactive) | > 100 µM (inactive) | 66.5 µM (inactive) |  |
